These results are taken from patent US20240092936A1, “METHODS OF TREATING HER2 POSITIVE BREAST CANCER WITH TUCATINIB IN COMBINATION WITH CAPECITABINE AND TRASTUZUMAB” (Seagen Inc., priority 2019, published 2024).

Entries after “also recorded” stand apart in the source; their conditions may differ. Read-outs that look alike come from different tables or passages of the source.

For data set [1] the following is noted: cited from earlier work.
Data set [2] has as its system patients on tucatinib studies. Briefly: Safety observations in earlier tucatinib studies (e.g. ONT-380-005). Type of data set: in vivo, human. As to conditions: patients taking tucatinib alone or in combination. The text has this: Trastuzumab and other HER2-targeted therapies were known to increase the risk of the development of asymptomatic and symptomatic declines in LVEF. […] Cardiac function was therefore monitored closely.
Monitoring of liver function tests was required for any patient taking tucatinib.
Patients with brain metastases were at risk for occurrence of AEs due to the presence of CNS lesions, progression of disease and toxicities potentially related to study treatment. On occasion, treatment of brain metastases with systemic or radiation therapy had been associated with localized edema thought to be due to treatment effect and not tumor progression. […] The patient's symptoms responded rapidly and completely to systemic corticosteroids. It was not known if this patient's symptoms were due to local progression or treatment-related toxicity. […] The patient was taken for surgical resection, and found to have no viable tumor. The resected lesion was thought to represent treatment-related necrosis.

Setting [3] is: Table 11, strong inhibitors or inducers of CYP3A4.
The mark [4] stands for this setting: Table 10, strong inhibitors and inducer of CYP2C8.

Consider `NC(=O)N1c2ccccc2C=Cc2ccccc21` [Carbamazepine], for which the “Elimination Half-life” value in data set [1] (Table 11, repeat dose) was 12 to 17 h (repeat dose). For the same compound, in data set [1] (Table 11, single dose), the “Elimination Half-life (hours)” value was 25-65 hours (single does),. On to `CC[C@H]1OC(=O)[C@H](C)[C@@H](O[C@H]2C[C@@](C)(OC)[C@@H](O)[C@H](C)O2)[C@H](C)[C@@H](O[C@@H]2O[C@H](C)C[C@H](N(C)C)[C@H]2O)[C@](C)(OC)C[C@@H](C)C(=O)[C@H](C)[C@@H](O)[C@]1(C)O` [Clarithromycin], for which the “Elimination Half-life” value in data set [1] (setting [3]) was 3 to 7 h. Turning to `COC(=O)[C@H](c1ccccc1Cl)N1CCc2sccc2C1` [Clopidogrel], the “Elimination Half-life” value in data set [1] (setting [4]) is 6 h.

As to `COc1ccc([C@@H]2Sc3ccccc3N(CCN(C)C)C(=O)[C@@H]2OC(C)=O)cc1` [Diltiazem], the “Elimination Half-life” value in data set [1] (setting [3]) is 3 to 4 h.

As to `Cc1ccc(C)c(OCCCC(C)(C)C(=O)O)c1` [Gemfibrozil], the “Elimination Half-life” value in data set [1] (setting [4]) was 1 to 2 h. Take `CCC(C)n1ncn(-c2ccc(N3CCN(c4ccc(OCC5COC(Cn6cncn6)(c6ccc(Cl)cc6Cl)O5)cc4)CC3)cc2)c1=O` (centres unmarked) [Itraconazole]: the “Elimination Half-life” value in data set [1] (Table 11, repeat dose) is 34 to 42 h (repeat dose). Also, the “Elimination Half-life (hours)” value in data set [1] (Table 11, single dose) is given as 16-28 hours (single dose),.

Regarding `CC(=O)N1CCN(c2ccc(OCC3COC(Cn4ccnc4)(c4ccc(Cl)cc4Cl)O3)cc2)CC1` (centres unmarked) [Ketoconazole (systemic), Ketoconazole], the “Elimination Half-life” value in data set [1] (setting [3]) is 2 to 8 h.

`CC(C)(O)c1ccccc1CC[C@@H](SCC1(CC(=O)O)CC1)c1cccc(/C=C/c2ccc3ccc(Cl)cc3n2)c1` [Montelukast]: the “Elimination Half-life” value in data set [1] (setting [4]) was 3 to 6 h. For `CCc1nn(CCCN2CCN(c3cccc(Cl)c3)CC2)c(=O)n1CCOc1ccccc1` [Nefazodone], the “Elimination Half-life” value in data set [1] (setting [3]) was 2 to 4 h.

As to `O=C1NC(=O)C(c2ccccc2)(c2ccccc2)N1` [Phenytoin], the “Elimination Half-life” value in data set [1] (setting [3]) is 7 to 42 h.

Regarding `CC[C@@H]([C@H](C)O)n1ncn(-c2ccc(N3CCN(c4ccc(OC[C@@H]5CO[C@@](Cn6cncn6)(c6ccc(F)cc6F)C5)cc4)CC3)cc2)c1=O` [Posoconazole], the “Elimination Half-life” value in data set [1] (setting [3]) is 27 to 35 h.

Regarding `COc1cc(Cc2cnc(N)nc2N)cc(OC)c1OC` [Trimethoprim], the “Elimination Half-life” value in data set [1] (setting [4]) was 8 to 12 h.

`C[C@@H](c1ncncc1F)[C@](O)(Cn1cncn1)c1ccc(F)cc1F` [Voriconazole]: the “Elimination Half-life (hours)” value in data set [1] (setting [3]) is recorded as “Dose dependent”. For `Cc1cc(Nc2ncnc3ccc(NC4=NC(C)(C)CO4)cc23)ccc1Oc1ccn2ncnc2c1` [tucatinib], the “Adverse findings reported in earlier tucatinib studies” value in data set [2] is “rare reports of asymptomatic cardiac failure; also recorded: Grade 3 and 4 elevation of LFTs had been seen in some patients”. With Troleanomycin, the “Elimination Half-life” value in data set [1] (setting [3]) is 2 h.
